Test results as given in patent publication US7153869B2, “Substituted amino acids as erythropoietin mimetics” (priority 1998, dated 2006).
Read-outs that look alike come from different tables or passages of the source.

Target: T1, EBP-Ig (N-terminal 225 amino acids of the human EPO receptor joined to an Ig heavy chain) (Homo sapiens, UniProt P19235)
T1 construct: Ig heavy chain (fusion partner); made in house; host or cells: NSO cells (secreted into conditioned media)
T1 sequence (P19235 25-250 limits assumed): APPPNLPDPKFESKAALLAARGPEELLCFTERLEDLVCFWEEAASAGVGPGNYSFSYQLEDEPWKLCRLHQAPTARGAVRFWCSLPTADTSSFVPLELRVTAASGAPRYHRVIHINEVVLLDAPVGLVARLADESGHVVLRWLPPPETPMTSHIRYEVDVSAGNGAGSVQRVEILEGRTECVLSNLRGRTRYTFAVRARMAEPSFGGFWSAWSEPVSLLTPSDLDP
Assay: Inhibition of [125I]EPO binding to immobilized EBP-Ig (EPO binding protein-Ig), scintillation Flash plate competition assay
Settings: for IC30 μM (Inhibition of EPO binding to EBP-Ig): 0–500 μM test compound; for % inh @ 50 μM (Inhibition of EPO binding to EBP-Ig): 50 μM test compound, average % inhibition

[1] = read-out: % inh @ 50 μM (Inhibition of EPO binding to EBP-Ig)
[2] = read-out: IC50, μM (Inhibition of EPO binding to EBP-Ig), 0.5 nM [125I]EPO, concentration reducing corrected total binding to 50%

COC(=O)[C@H](CO)NC/C=C/c1cccc(Oc2ccc(C(C)(C)C)cc2)c1.O=C(O)C(F)(F)F [compound 343]
EPO/EBP-Ig % inh @ 50 μM (50 μM compound, Table 20A): 37%

COC(=O)C(CCCCN)N(C/C=C/c1cccc([N+](=O)[O-])c1)C/C=C/c1cccc([N+](=O)[O-])c1 (stereo not shown) [compound 184]
IC30 μM (Inhibition of EPO binding to EBP-Ig) (0.5 nM [125I]EPO): 10 µM | EPO/EBP-Ig % inh @ 50 μM (50 μM compound, Table 9): 53% | % inh @ 50 μM (Inhibition of EPO binding to EBP-Ig) (0.5 nM [125I]EPO): 53%

NCCCCC(C(=O)NCc1ccccc1)N(CC=Cc1ccccc1)CC=Cc1ccccc1 (stereo not shown) [compound 235]
IC30 μM (Inhibition of EPO binding to EBP-Ig) (0.5 nM [125I]EPO): 20 µM | inhibition at 50 µM [1]: 49% | inhibition at 50 µM (read-out: EPO/EBP-Ig % inh @ 50 μM, 50 μM compound, Table 10): 49% | IC50 [2]: 50 µM

CC(=O)O.COC(=O)c1cccc(/C=C/CN[C@@H](Cc2ccccc2)C(=O)OC)c1 [compound 361]
EPO/EBP-Ig % inh @ 50 μM (50 μM compound): 24%

CC(C)(C)OC(=O)CC(C(=O)NCCCCCCCCCCCCNC(=O)C(CC(=O)OC(C)(C)C)N(C/C=C/c1cccc(Oc2ccc(C(C)(C)C)cc2)c1)C/C=C/c1cccc(Oc2ccc(C(C)(C)C)cc2)c1)N(C/C=C/c1cccc(Oc2ccc(C(C)(C)C)cc2)c1)C/C=C/c1cccc(Oc2ccc(C(C)(C)C)cc2)c1 (stereo not shown) [compound 255]
EPO/EBP-Ig % inh @ 50 μM (50 μM compound, Table 12): 0%

COC(=O)C(CCCCNC(=O)OCc1ccccc1)N(C/C=C/c1ccccc1)C/C=C/c1ccccc1 (stereo not shown) [compound 171]
EPO/EBP-Ig % inh @ 50 μM (50 μM compound, Table 9): nb

COC(=O)C(CCCCN)N(Cc1ccc(OCc2ccccc2)cc1)Cc1cccc(NC(=O)c2ccco2)c1 (stereo not shown) [cpd 117, N-(4-Benzyloxybenzyl)-N-(3-((2-furancarbonyl)amino)benzyl)Lys-OMe]
% inh @ 50 μM (Inhibition of EPO binding to EBP-Ig) (0.5 nM [125I]EPO): 34% | EPO/EBP-Ig % inh @ 50 μM (Table 7, 50 μM): 34%

COC(=O)C(CCC(=O)O)N(C/C=C/c1cccc(Oc2ccc(Cl)c(Cl)c2)c1)C/C=C/c1cccc(Oc2ccc(Cl)c(Cl)c2)c1 (stereo not shown) [compound 101]
% inh @ 50 μM (Inhibition of EPO binding to EBP-Ig) (0.5 nM [125I]EPO): 32% | EPO/EBP-Ig % inh @ 50 μM (Table 6, 50 μM): 32%

Cc1ccc(Oc2cccc(CN(Cc3cccc(NCc4ccccc4F)c3)C(CC(=O)O)C(=O)O)c2)cc1 (stereo not shown) [compound 73]
EPO/EBP-Ig % inh @ 50 μM (Table 4, 50 μM): −13%

NC(=O)CCC(C(=O)O)N(CC=Cc1cccs1)CC=Cc1cccs1 (stereo not shown) [compound 55]
EPO/EBP-Ig % inh @ 50 μM (Table 3, 50 μM): 4%

COC(=O)[C@H](COC(C)(C)C)N(C/C=C/c1ccccc1)C/C=C/c1ccccc1 [compound 306]
EPO/EBP-Ig % inh @ 50 μM (50 μM compound, Table 16A): 21%

COC(=O)C(CCCCNC(=O)OC(C)(C)C)N(Cc1ccc(OCc2ccccc2)cc1)Cc1cccc([N+](=O)[O-])c1 (stereo not shown) [cpd 113, N-(4-Benzyloxybenzyl)-N-(3-nitrobenzyl)Lys(Boc)-OMe]
EPO/EBP-Ig % inh @ 50 μM (Table 7, 50 μM): 24%

COC(=O)[C@H](C)NC/C=C/c1ccccc1 [compound 372]
EPO/EBP-Ig % inh @ 50 μM (50 μM compound): 0%

CCCCNC(=O)C(CCCCNC(=O)c1ccccc1OC)N(C/C=C/c1ccccc1)C/C=C/c1ccccc1 (stereo not shown) [compound 209]
EPO/EBP-Ig % inh @ 50 μM (50 μM compound, Table 10, 50 µM): 25%

O=C(O)CC(C(=O)O)N(CC=Cc1cccc(Oc2ccccc2)c1)CC=Cc1cccc(Oc2ccccc2)c1 (stereo not shown) [cpd 107, N,N-bis(3-Phenoxycinnamyl)Asp-OH]
IC30 μM (Inhibition of EPO binding to EBP-Ig) (0.5 nM [125I]EPO): 30 µM | % inh @ 50 μM (Inhibition of EPO binding to EBP-Ig) (0.5 nM [125I]EPO): 78% | EPO/EBP-Ig % inh @ 50 μM (Table 6, 50 μM): 78%

COC(=O)C(CCC(=O)OC(C)(C)C)NCC=Cc1cccc(Oc2ccccc2)c1 (stereo not shown) [cpd 334, N-(3-phenoxycinnamyl)Glu(O-t-Bu)-OMe]
EPO/EBP-Ig % inh @ 50 μM (50 μM compound, Table 19A): 6%

COC(=O)[C@H](CCC(=O)O)NC/C=C/c1ccc(-c2ccccc2)cc1.O=C(O)C(F)(F)F [compound 327]
EPO/EBP-Ig % inh @ 50 μM (50 μM compound, Table 19A): 11%

COC(=O)C(CCCCN)N(C/C=C/c1cccc(Oc2ccc(C(C)(C)C)cc2)c1)C/C=C/c1cccc(Oc2ccc(C(C)(C)C)cc2)c1 (stereo not shown) [compound 182]
EPO/EBP-Ig % inh @ 50 μM (50 μM compound, Table 9): 18%

O=C(O)CC(C(=O)O)N(C/C=C/c1cccc(Oc2ccccc2)c1)Cc1cccc(Oc2ccccc2)c1 (stereo not shown) [compound 77]
IC50: 40 µM | IC30 μM (Inhibition of EPO binding to EBP-Ig) (0.5 nM [125I]EPO): 30 µM | inhibition at 50 µM [1]: 52% | inhibition at 50 µM (read-out: EPO/EBP-Ig % inh @ 50 μM, Table 5, 50 μM): 52%

O=C(O)C(F)(F)F.O=C(O)[C@H](CO)NC/C=C/c1ccc(-c2ccccc2)cc1 [compound 348]
EPO/EBP-Ig % inh @ 50 μM (50 μM compound, Table 20A): 21%

Cc1ccccc1CNc1cccc(CN(Cc2cccc(Oc3ccccc3)c2)C(CC(=O)O)C(=O)O)c1 (stereo not shown) [compound 69]
EPO/EBP-Ig % inh @ 50 μM (Table 4, 50 μM): −13%

COC(=O)C(COC(C)(C)C)N(CC=Cc1cccc(Oc2ccccc2)c1)CC=Cc1cccc(Oc2ccccc2)c1 (stereo not shown) [cpd 290, N,N-bis(3-Phenoxycinnamyl)Ser(t-Bu)-OMe]
EPO/EBP-Ig % inh @ 50 μM (50 μM compound, Table 16A): 0%

O=C(O)CC(C(=O)O)N(Cc1cccc(NCc2ccc(F)cc2)c1)Cc1cccc(Oc2ccccc2)c1 (stereo not shown) [compound 70]
EPO/EBP-Ig % inh @ 50 μM (Table 4, 50 μM): −8%

CC(=O)O.COC(=O)[C@H](CO)N(C/C=C/c1cccc(Oc2ccc(C(C)(C)C)cc2)c1)C/C=C/c1cccc(Oc2ccc(C(C)(C)C)cc2)c1 [compound 298]
EPO/EBP-Ig % inh @ 50 μM (50 μM compound, Table 16A): 1%

COC(=O)c1cccc(C=CCNC(Cc2ccc(OC)cc2)C(=O)OC)c1 (stereo not shown) [compound 363]
IC30 μM (Inhibition of EPO binding to EBP-Ig) (0.5 nM [125I]EPO): 35 µM | inhibition at 50 µM [1]: 33% | inhibition at 50 µM (read-out: EPO/EBP-Ig % inh @ 50 μM, 50 μM compound): 33% | IC50 [2]: 220 µM

CCCCC(=O)Nc1cccc(CN(Cc2cccc(Oc3ccccc3)c2)C(CCC(=O)O)C(=O)NCCOCCOCCNC(=O)C(CCC(=O)O)N(Cc2cccc(NC(=O)CCCC)c2)Cc2cccc(Oc3ccccc3)c2)c1 (stereo not shown) [cpd 247, [N-(3-Phenoxybenzyl)-N-(3-(pentanoylamino)benzyl)-Glu-NHCH2CH2OCH2]2]
IC50: 18 µM | IC30 μM (Inhibition of EPO binding to EBP-Ig) (0.5 nM [125I]EPO): 7 µM | inhibition at 50 µM [1]: 47% | inhibition at 50 µM (read-out: EPO/EBP-Ig % inh @ 50 μM, Table 11, 50 μM): 47%

CC(C)(C)OC(=O)CC[C@H](NC/C=C/c1cccc(Oc2ccc(Cl)c(Cl)c2)c1)C(=O)O [compound 341]
EPO/EBP-Ig % inh @ 50 μM (50 μM compound, Table 19A): 19%

O=C(O)CCC(=O)NCCCCC(C(=O)NCCCOCCCCOCCCNC(=O)C(CCCCNC(=O)CCC(=O)O)N(Cc1ccc(OCc2ccccc2)cc1)Cc1ccc(OCc2ccccc2)cc1)N(Cc1ccc(OCc2ccccc2)cc1)Cc1ccc(OCc2ccccc2)cc1 (stereo not shown) [compound 265]
IC30 μM (Inhibition of EPO binding to EBP-Ig) (0.5 nM [125I]EPO): 1 µM | EPO/EBP-Ig % inh @ 50 μM (50 μM compound, Table 13): 65% | % inh @ 50 μM (Inhibition of EPO binding to EBP-Ig) (0.5 nM [125I]EPO): 65% | IC50 [2]: 6 µM

COC(=O)C(CCCCN)N(Cc1ccc(OCc2ccccc2)cc1)Cc1cccc(NC(=O)C(C)C)c1 (stereo not shown) [compound 119]
% inh @ 50 μM (Inhibition of EPO binding to EBP-Ig) (0.5 nM [125I]EPO): 34% | EPO/EBP-Ig % inh @ 50 μM (Table 7, 50 μM): 34%

COC(=O)[C@H](CO)NC/C=C/c1cccc(Oc2cccc(C(F)(F)F)c2)c1.O=C(O)C(F)(F)F [compound 344]
EPO/EBP-Ig % inh @ 50 μM (50 μM compound, Table 20A): 4%

O=C(O)C(F)(F)F.O=C(O)[C@H](CO)N(C/C=C/c1cccc(Oc2cccc(C(F)(F)F)c2)c1)C/C=C/c1cccc(Oc2cccc(C(F)(F)F)c2)c1 [compound 308]
EPO/EBP-Ig % inh @ 50 μM (50 μM compound, Table 16A): 25%

COC(=O)[C@H](CCCCNC(=O)OCc1ccccc1)NC/C=C/c1ccc(C(=O)O)cc1 [compound 323]
EPO/EBP-Ig % inh @ 50 μM (50 μM compound, Table 18A): 6%

O=C(O)CCC(C(=O)NCCOCCOCCNC(=O)C(CCC(=O)O)N(Cc1cccc(NC(=O)c2ccco2)c1)Cc1cccc(Oc2ccccc2)c1)N(Cc1cccc(NC(=O)c2ccco2)c1)Cc1cccc(Oc2ccccc2)c1 (stereo not shown) [compound 248]
IC30 μM (Inhibition of EPO binding to EBP-Ig) (0.5 nM [125I]EPO): 7 µM | % inh @ 50 μM (Inhibition of EPO binding to EBP-Ig) (0.5 nM [125I]EPO): 56% | EPO/EBP-Ig % inh @ 50 μM (Table 11, 50 μM): 56% | IC50 [2]: 20 µM

CC(C)(C)OC(=O)CN(C/C=C/c1cccc(Oc2ccccc2)c1)C/C=C/c1cccc(Oc2ccccc2)c1 [compound 311]
EPO/EBP-Ig % inh @ 50 μM (50 μM compound, Table 17A): 5.3%

CC(C)(CC(=O)O)CC(=O)NCCCCC(C(=O)NCCOCCOCCNC(=O)C(CCCCNC(=O)CC(C)(C)CC(=O)O)N(Cc1ccc(OCc2ccccc2)cc1)Cc1ccc(OCc2ccccc2)cc1)N(Cc1ccc(OCc2ccccc2)cc1)Cc1ccc(OCc2ccccc2)cc1 (stereo not shown) [compound 264]
IC30 μM (Inhibition of EPO binding to EBP-Ig) (0.5 nM [125I]EPO): 1.5 µM | EPO/EBP-Ig % inh @ 50 μM (50 μM compound, Table 13): 89% | % inh @ 50 μM (Inhibition of EPO binding to EBP-Ig) (0.5 nM [125I]EPO): 89% | IC50 [2]: 8 µM

NCCCCC(C(=O)O)N(Cc1cccc(Oc2ccccc2)c1)C(=O)C=Cc1cccc(OCc2ccccc2)c1 (stereo not shown) [compound 286]
IC30 μM (Inhibition of EPO binding to EBP-Ig) (0.5 nM [125I]EPO): 35 µM | inhibition at 50 µM [1]: 46% | inhibition at 50 µM (read-out: EPO/EBP-Ig % inh @ 50 μM, 50 μM compound, Table 15): 46% | IC50 [2]: 65 µM
